We go through two compounds from patent US20220348567A1, “NOVEL OXADIAZOLE COMPOUNDS CONTAINING 5- MEMBERED HETEROAROMATIC RING FOR CONTROLLING OR PREVENTING PHYTOPATHOGENIC FUNGI” (PI INDUSTRIES LTD., priority 2019, published 2022).

One assay has as its system Botrytis cinerea. Nature of the assay: Botrytis cinerea (gray mold) in vitro radial growth test on potato dextrose agar. The assay is classed as cell-based. The settings on record: 300 ppm; 7 days, 22° C., 90% relative humidity.
In another assay the test system is Fusarium culmorum. Nature of the assay: Fusarium culmorum (foot rot of cereals) in vitro radial growth test on potato dextrose agar. In kind it is cell-based. The settings on record: 300 ppm; 7 days, 25° C., 60% relative humidity. The protocol: Compounds were dissolved in 0.3% dimethyl sulfoxide and then added to potato dextrose agar medium just prior to dispensing it into petri dishes. 5 mL medium with the compound in the desired concentration was dispensed into 60 mm sterile petri-plates. After solidification, each plate was seeded with a 5 mm size mycelial disc taken from the periphery of an actively growing virulent culture plate. Plates were incubated in growth chambers at 25° C. temperature and 60% relative humidity for seven days and then the radial growth was measured and compared to the one of the untreated control.

A further assay concerns Parastagonospora nodorum. Kind of assay: Parastagonospora nodorum (PARANO) microtiter growth inhibition assay, OD600. The assay is classed as cell-based. As to conditions: 18° C., 15-18 days, read-out: control (growth inhibition by OD600). On the procedure:
Potato dextrose (PDB) liquid medium (Difco) containing a […] (10^5 spores/ml) spore suspension was prepared. For the inhibition assay, each test compound was solved in dimethyl sulfoxide. 100 μl of the test media-solution was added to a 96-well microtiter plate, consequently, the same volume (100 μl) of spore suspension was added to the well making the final test concentrations and the plate was incubated at 18° C. for 15-18 days. The growth inhibition was evaluated by measuring the OD600. Percent inhibition was calculated with the below formula: I=([…])*100 Where T=treatment, C═control, and B=blank

The test system of another assay is Phakopsora pachyrhizi. Nature of the assay: Phakopsora pachyrhizi test in soybean, greenhouse, preventive activity. The assay is classed as in vivo, Phakopsora pachyrhizi on soybean plants. The settings on record: 24 h, spray one day before inoculation, soybean plants, read-out: control (efficacy, disease severity rating versus untreated control). On the procedure:
Compounds were dissolved in 2% dimethyl sulfoxide/acetone and then mixed with water containing emulsifier to the calibrated spray volume of 50 mL. Each spray solution was poured into a spray bottle for further application. To test the preventive activity of the compound, healthy young Soybean plants, raised in the greenhouse, were sprayed with the active compound preparation at the stated application rate inside the spray cabinets using hollow cone nozzles. One day aftertreatment, the plants were inoculated with a conidial suspension containing 2×10^5Phakopsora […]. The inoculated plants were then kept in a greenhouse chamber at 22-24° C. temperature and 80-90% relative humidity for disease expression. A visual assessment of the compound's performance was carried out by rating the disease severity (0-100% scale) on treated plants 3, 7, 10 and 15 days after application. Efficacy (% control) of the compound was calculated by comparing the disease rating in the treatment with the one of the untreated control. The sprayed plants were also assessed for plant damage by recording symptoms like necrosis, chlorosis and stunting.

One may read the inhibition as the change of the read-out against control, counted positive when it falls.

Some results are limits rather than exact numbers.

On to `CS(=O)(=NC(=O)c1ccn(-c2ccc(-c3noc(C(F)(F)F)n3)cc2)c1)c1ccncc1F` (centres unmarked) [Compound 28, N-((3-fluoropyridin-4-yl)(methyl)(oxo)-λ^6-sulfanylidene)-1-(4-(5-(trifluoromethyl)-1,2,4-oxadiazol-3-yl)phenyl)-1H-pyrrole-3-carboxamide], for which the “control (radial growth compared to untreated control)” value in the assay on Botrytis cinerea and with Fusarium culmorum was no less than 70% each time. Further, the inhibition at 300 ppm with Parastagonospora nodorum was no less than 70%.

As to `O=C(Cc1cn(-c2ccc(-c3noc(C(F)(F)F)n3)cc2)cn1)NCc1ccc(F)cc1` [Compound 6, N-(4-fluorobenzyl)-2-(1-(4-(5-(trifluoromethyl)-1,2,4-oxadiazol-3-yl)phenyl)-1H-imidazol-4-yl)acetamide], in the assay on Parastagonospora nodorum, the inhibition at 300 ppm was no less than 70%. Besides, the pest or weed control at 500 ppm in the assay with Phakopsora pachyrhizi was no more than 70%.
